Measured values published in publication PMC11479992, “Branched oncolytic peptides target HSPGs, inhibit metastasis, and trigger the release of molecular determinants of immunogenic cell death in pancreatic cancer” (Frontiers in Molecular Biosciences, 2024).
Structures can show the parent of a compound that is named as a salt. Bridges are numbered along the chain shown (N, C = ends). Roman numbers before positions name the chains, in order. Where no end group is shown, it is not given here.

Assays:
[1] = tested on: HMGB1 release by PANC-1 cells; assay: HMGB1 release ELISA; assay type: cell-based, human; conditions: 300 to 2 μM, 24 h, ELISA of supernatants, n = 3
Protocol: PANC-1 cells were seeded 5 × 10^4 cells/well in a standard 96-well plate and incubated overnight at 37°C in a 5% CO2 atmosphere. Then they were treated with BOP7, BOP9, daunorubicin hydrochloride (Sigma Aldrich) and irinotecan hydrochloride (Sigma Aldrich) at different concentrations (from 300 to 2 μM in 200 μL) and left for 24 h at 37°C. The following day, release of HMGB1 in the culture medium was assessed with an HMGB1 ELISA kit (IBL International, Hamburg, Germany) in the PANC-1 supernatants, according to the manufacturer’s instructions. Optical density was measured at 450 nm with a microplate spectrophotometer (Multiskan, Thermo Scientific). Data was analysed using GraphPad Prism version 9.5.0 software.

[2] = tested on: IFN-β secretion by PANC-1 cells; assay: IFN-β release ELISA; assay type: cell-based, human; conditions: 300 to 2 μM, 24 h, n = 3
Protocol: PANC-1 cells were seeded 5 × 10^4 cells/well in a 96-well plate and incubated overnight at 37°C in a 5% CO2 atmosphere. Cells were then treated with BOP7, BOP9, daunorubicin hydrochloride (Sigma Aldrich) and irinotecan hydrochloride (Sigma Aldrich) at different concentrations (from 300 to 2 μM) and left for 24 h at 37°C. At the same time, a DuoSet ELISA plate (R&D Systems Inc., Minneapolis, MN, United States) for the detection of IFN-β was prepared following the manufacturer’s instructions. The plate was sensitized with 100 μL/well of capture antibody for 24 h. PANC-1 supernatants were collected and centrifuged for 5 min at 1,200 rpm, added to the DuoSet plate at 100 μL/well and incubated for 2 h at room temperature. The detection antibody conjugated with streptavidin-peroxidase was then added. After adding the substrate solution, the plate was read at 450 nm using a microplate spectrophotometer (Multiskan, Thermo Scientific). Data was analysed using GraphPad Prism version 9.5.0 software.

[3] = tested on: ATP release by PANC-1 cells; assay: Extracellular ATP bioluminescence assay; assay type: cell-based, human; conditions: 50 μM
Protocol: PANC-1 cells were seeded (10 × 10^3 cells/well) in an opaque-walled 96-well plate and incubated overnight at 37°C in a 5% CO2 atmosphere. The following day, each well was treated with 150 μL BOP7, BOP9, daunorubicin hydrochloride (Sigma Aldrich) or irinotecan hydrochloride (cod. PHR2717, Sigma Aldrich) at different concentrations (from 50 to 2 μM). At the same time, each well was incubated with 50 μL RealTime-Glo Extracellular ATP Reagent Substrate (Promega). The plate was incubated at 37° and bioluminescence was measured at 560 nm at different time intervals with a VICTOR NIVO 5S luminometer (Perkin Elmer, Waltham, MA, United States). Data was analysed using GraphPad Prism version 9.5.0 software.

Mia PaCa-2 cells = assay type: cell-based, human; conditions: 24 h
Protocol: (§1) PANC-1, PANC-1-luc2, Mia PaCa-2 or CHO-K1 cells were seeded 5 × 10^4 cells/well in a standard 96-well plate and incubated overnight at 37°C, 5% CO2 atmosphere. Each well was treated with 200 μL BOP7 or BOP9 at different concentrations (from 100 to 0.08 μM) and incubated for 24 h. PANC-1 and Mia PacCa-2 were also tested with linear peptides L7 and L9 at concentrations ranging from 781 to 0.5 μM under the same conditions. Growth inhibition was assessed with a MMT assay (3-(4,5-dimethylthiazol-2-yl)-2,5-diphenyltetrazolium bromide) (Sigma Aldrich). Optical density was measured at 595 and 650 nm with a microplate spectrophotometer (Multiskan, Thermo Scientific). Experiments were repeated twice in quintuplicate. Cell viability was measured by comparing values of treated and untreated cells. IC50 values were calculated by non-linear regression analysis using GraphPad Prism version 9.5.0 software.

PANC-1 cells = assay type: cell-based, human; conditions: 24 h
Protocol: as §1

CHO-K1 cells = assay type: cell-based, chinese hamster; conditions: 24 h
Protocol: as §1, with “Each well was treated with 200 μL BOP7 or BOP9 at different concentrations (from 100 to 0.08 μM) and incubated for 24 h.” left out

| Compound | HMGB1 release [1] | IFN-β release [2] | time after which ATP release returned to baseline [3] [h] | time of peak of ATP release [3] [h] | ATP release ([3]; bioluminescence over time) | IC50 (Mia PaCa-2 cells) [µM] | IC50 (PANC-1 cells) [µM] | IC50 (CHO-K1 cells) [µM] |
| --- | --- | --- | --- | --- | --- | --- | --- | --- |
| COc1cccc2c1C(=O)c1c(O)c3c(c(O)c1C2=O)C[C@@](O)(C(C)=O)C[C@@H]3O[C@H]1C[C@H](N)[C@H](O)[C@H](C)O1 [daunorubicin, daunorubicin hydrochloride] | most effective inducer even at the lowest concentrations | did not result in a statistically significant release | 6 | 3 | most effective agent | – | – | – |
| CCc1c2c(nc3ccc(OC(=O)N4CCC(N5CCCCC5)CC4)cc13)-c1cc3c(c(=O)n1C2)COC(=O)[C@]3(O)CC [irinotecan, irinotecan hydrochloride] | – | did not result in a statistically significant release | – | – | – | – | – | – |
| I: KKKLKFKKLQKK-NH2 / II: KKKLKFKKLQK / III: KKKLKFKKLQ / IV: KKKLKFKKLQ (amide I:11-IV:C, I:12-II:C, II:11-III:C) [BOP9] | – | – | – | – | – | 17.8 | 8.3 | 16000 |
| I: LLKKKFKKLQKK-NH2 / II: LLKKKFKKLQK / III: LLKKKFKKLQ / IV: LLKKKFKKLQ (amide I:11-IV:C, I:12-II:C, II:11-III:C) [BOP7] | – | – | – | – | – | 27.3 | 1.67 | 5000 |
